{"source": "patent US20240067682A1", "about": "“PEPTIDE HAVING PLANT STEM CELL-INDUCING EFFECT AND PLANT PEST RESISTANCE-INDUCING EFFECT” (KYOTO PREFECTURAL PUBLIC UNIVERSITY CORPORATION, priority 2020, published 2024)", "key": {"[1]": {"test_system": "Pseudomonas syringae pv tomato DC3000", "assay": "Disease tolerance test with CAP6 peptide: DC3000 infection of sprayed Arabidopsis thaliana leaves", "format": "in vivo", "settings": "60 nM CAP6 peptide/0.02% Silwet L-77 sprayed 48 hours before infection; counted one day after infection", "method": "Multiple types (76 types) of CAP proteins derived from Schlechtendalia chinensis, Caloptilia cecidophora, Borboryctis euryae, Caloptilia ryukyuensis, Rhus javanica, and Arabidopsis thaliana were aligned. From the consensus sequence (FIG. 9), FTQIVW (SEQ ID NO: 21) was determined (hereinafter referred to as “CAP6 peptide”). Then, Arabidopsis thaliana leaves were sprayed with 0.02% Silwet L-77 (Control), 60 nM CAP peptide/0.02% Silwet L-77, or 60 nM CAP6 peptide/0.02% Silwet L-77, and 48 hours later, infected with Pseudomonas syringae pv tomato DC3000 (DC3000) with an OD600 of 0.2×10^−3. One day later, DC3000 obtained from leaf fragments cut into 5-mm-diameter circles was diluted and spotted on LB medium containing kanamycin. 24 hours later, the number of bacteria per unit area was counted."}, "[2]": {"test_system": "Arabidopsis thaliana expressing stem cell marker PLT1-GFP", "assay": "Stem cell induction in Arabidopsis thaliana roots expressing stem cell marker PLT1-GFP (confocal imaging)", "format": "in vivo", "settings": "600 nM peptide aqueous solution, immersion 2 days", "method": "Arabidopsis thaliana roots were treated with CAP peptide ([…]). Arabidopsis thaliana expressing stem cell marker PLT1-GFP was immersed in water or a 600 nM peptide aqueous solution for 2 days, and GFP fluorescent images and bright field images were obtained with a confocal laser microscope."}, "[3]": {"test_system": "genes related to freezing tolerance and drought tolerance", "assay": "RNA-seq gene expression after 4 hours immersion in CAP peptide", "format": "in vivo, Arabidopsis thaliana", "settings": "600 nM, immersion 4 hours, vs water", "method": "RNA of Arabidopsis thaliana immersed in water or a 600 nM CAP peptide solution for 4 hours was extracted, and gene expression was compared by RNA-seq analysis. Network analysis was then performed on genes with increased expression."}, "[4]": {"test_system": "wild-type Arabidopsis thaliana seeds", "assay": "Osmotic and drought tolerance: growth of peptide-immersed seeds on excess mannitol- or sorbitol-containing medium", "format": "in vivo", "method": "Next, wild-type Arabidopsis thaliana seeds were immersed in water (Control) or 600 nM CAP peptide for 5 minutes and then grown on an excess mannitol-containing medium. Further, wild-type Arabidopsis thaliana seeds were immersed in water (Control) or 600 nM CAP peptide overnight, and then grown on an excess sorbitol-containing medium."}, "[5]": {"test_system": "genes related to disease resistance", "assay": "RNA-seq gene expression after 48 hours immersion in CAP peptide", "format": "in vivo, Arabidopsis thaliana", "settings": "600 nM, immersion 48 hours, vs water", "method": "RNA of Arabidopsis thaliana immersed in water or a 600 nM CAP peptide solution for 48 hours was extracted, and gene expression was compared by RNA-seq analysis. Network analysis was then performed."}, "[6]": {"test_system": "Pseudomonas syringae pv tomato DC3000", "assay": "DC3000 infection of Arabidopsis thaliana leaves sprayed with 600 nM CAP peptide, bacterial count", "format": "in vivo", "settings": "leaves sprayed with 600 nM CAP peptide/0.02% Silwet L-77 24 hours before infection; counted 2 days after infection", "method": "Next, Arabidopsis thaliana leaves were sprayed with water/0.02% Silwet L-77 (Control) or 600 nM CAP peptide/0.02% Silwet L-77, and 24 hours later, infected with Pseudomonas syringae pv tomato DC3000 (DC3000) with an OD600 of 0.2×10^−3. 2 days later, DC3000 obtained from leaf fragments cut into 4-mm-diameter circles was diluted and spotted on LB medium containing kanamycin. After incubation at 28° C. for 24 hours, the number of bacteria per unit area was counted."}, "[7]": {"test_system": "Pseudomonas syringae DC3000", "assay": "DC3000 inoculation of Arabidopsis thaliana leaves applied with 60 nM CAP peptide", "format": "in vivo", "method": "Arabidopsis thaliana leaves applied with water or 60 nM CAP peptide were inoculated with Pseudomonas syringae DC3000."}, "[8]": {"test_system": "Pseudomonas syringae pv tomato DC3000", "assay": "DC3000 inoculation of Brassica rapa leaves sprayed with 60 nM CAP peptide", "format": "in vivo", "method": "Brassica rapa leaves were sprayed with water or a 60 nM CAP peptide solution in advance, and one day later, inoculated with plant pathogen Pseudomonas syringae pv tomato DC3000 (DC3000). 2 days after infection, DC3000 obtained from leaf fragments cut into 4-mm-diameter circles was diluted, spotted on LB medium containing kanamycin, and incubated at 28° C. for 24 hours."}, "[9]": {"test_system": "Arabidopsis thaliana seeds", "assay": "Germination of Arabidopsis thaliana seeds harvested 10 years before", "format": "in vivo", "settings": "seeds immersed in 1, 10 or 100 μM CAP peptide for 2 hours; measured 2 weeks after sowing", "method": "Arabidopsis thaliana seeds harvested 10 years before and not naturally germinated were immersed in 0, 1, 10, or 100 μM CAP peptide for 2 hours and then sown. The germination rate was measured 2 weeks later."}, "Rorippa aquatica": {"test_system": "Rorippa aquatica", "assay": "Agrobacterium transformation of Rorippa aquatica in the presence of CAP peptide", "format": "in vivo", "settings": "1 μM CAP peptide mixed with Agrobacterium carrying GFP-TUB6 plasmid", "method": "Agrobacterium introduced with a plasmid expressing GFP-TUB6 protein was mixed with CAP peptide to final concentrations of 50 nM, 1 μM, and 10 μM, and transformed into Rorippa aquatica."}, "[10]": {"test_system": "Cherry tomato Sun Cherry seedlings", "assay": "Growth promotion of cherry tomato Sun Cherry seedlings", "format": "in vivo", "settings": "1 μM CAP peptide sprayed twice (Jul. 21 and July 28); t-test p<0.05", "method": "Cherry tomato Sun Cherry seedlings were purchased, sprayed with 1 μM CAP peptide on Jul. 21, 2021, and then grown in planters in an alley. The second 1 μM CAP peptide treatment was performed on July 28."}}, "data": [{"substance": "FTQIVW (consensus sequence of CAP) [CAP6 peptide]", "values": [{"measurement": "disease tolerance effect", "setting": "[1]", "result": "a remarkable effect was obtained"}]}, {"substance": "TQVVWKSTTNIGVGILIVNGTV (partial peptide of CAP) [CAP peptide, synthetic peptide from the conserved region of insect CAP (cysteine-rich secretory protein, antigen 5, and pathogenesis-related 1)]", "values": [{"measurement": "transformation of differentiated cells into stem cells", "setting": "[2]; PLT1-GFP marker", "result": "differentiated cells were transformed into stem cells"}, {"measurement": "induction of gall-like structure", "setting": "[2]; roots", "result": "induced a gall-like structure"}, {"measurement": "increase in expression of genes related to freezing tolerance and drought tolerance", "setting": "[3]", "result": "≥ 2", "unit": "factor"}, {"measurement": "root extension on excess mannitol-containing medium vs control", "setting": "[4]; 600 nM, 5 minutes immersion, high-osmotic pressure conditions", "result": "extended more"}, {"measurement": "root extension on excess sorbitol-containing medium vs control", "setting": "[4]; 600 nM, overnight immersion, dry conditions", "result": "extended more"}, {"measurement": "growth on excess mannitol-containing medium, mean value", "setting": "[4]; seeds immersed in 600 nM CAP peptide for 5 minutes, high-osmotic pressure conditions, FIG. 3 upper", "result": "11.69 (S.D.=1.55)"}, {"measurement": "growth on excess sorbitol-containing medium, mean value", "setting": "[4]; seeds immersed in 600 nM CAP peptide overnight, dry conditions, FIG. 3 lower", "result": "7.71 (S.D.=1.39)"}, {"measurement": "increase in expression of genes related to disease resistance", "setting": "[5]", "result": "2 to 3", "unit": "factor"}, {"measurement": "growth of bacteria after infection", "setting": "[6]", "result": "suppressed the growth of bacteria"}, {"measurement": "growth of the pathogen", "setting": "[7]; 4 days after infection", "result": "significantly inhibited"}, {"measurement": "plant body growth vs water treatment", "setting": "[7]; 13 days after infection", "result": "grew much larger"}, {"measurement": "seed yield vs water treatment", "setting": "[7]; 13 days after pathogen infection", "result": "yielded more seeds"}, {"measurement": "freshness after pathogen treatment vs water treatment", "setting": "[8]; 60 nM CAP peptide sprayed one day before inoculation", "result": "freshness was maintained for a longer period of time"}, {"measurement": "inhibition of bacterial growth compared with water treatment", "setting": "[8]; 60 nM CAP peptide, 2 days after pathogen inoculation", "result": "≥ 1000", "unit": "times"}, {"measurement": "germination rate compared with gibberellin treatment", "setting": "[9]", "result": "much higher germination rate"}, {"measurement": "transformation efficiency", "setting": "Rorippa aquatica", "result": "high efficiency transformation"}, {"measurement": "effect of promoting stem extension compared with CAP-untreated group", "setting": "[10]", "result": "significantly confirmed"}]}]}
